The values that follow come from patent US8951563B2, “Antibiotic drug delivery and potentiation” (Technion Research & Development Foundation Limited, priority 2009, dated 2015).

The subject of one series is A. aureus. Type of series: cell-based. As to the method:
(§1) All bacteria were cultured in Luria-Bertani (LB) medium (10 g/l tryptone, 5 g/l yeast extract, 5 g/l NaCl, pH 7.4).
(§2) Bacteria were grown overnight in LB growth medium and diluted 10,000-fold in same medium.
(§3) Inhibition of proliferation was determined by optical density measurements (620 nm) after incubation overnight at 37° C.

A further series relates to E. coli. Type of series: cell-based. As to the method:
as §1, §2, §3

For series [1], the system named is four MDR clinical isolates of E. coli. Type of series: cell-based. Here is the method: as §2, §3
Series [2] relates to E. coli AG100. The experiment in a line: Ethidium bromide (EtBr) uptake assay. It is filed as cell-based. Conditions: bacteria in PBS, FIG. 2A. Here is the method: Cells were grown overnight in LB broth at 37° C. to an optical density of 1 (620 nm), washed twice in 200 μl PBS, and resuspended in the same buffer containing 0.5% glucose. […] Fluorescence was recorded by a BioTeK synergy HT Microplate Reader (excitation, 530 nm; emission, 645 nm).
Ethidium bromide is known for its ability to spontaneously translocate across bacterial membranes and interact with nucleic acids, as can be evidenced by the increase in fluorescence signal.

For series [3], the system named is E. coli AG100. The experiment in a line: Bactericidal kinetics (time-kill). Conditions: sub-MIC concentrations, FIG. 2B. It is filed as cell-based. As to the method: Bacteria were sampled at various time intervals, subjected to serial 10-fold dilutions, and plated onto LB-agar. Cell counts were determined using the drop plate method. Plates were incubated overnight at 37° C. and colonies were counted.

A short description of series [4]: Encapsulation efficiency, liposome versus cochleate (MIC and fluorescamine methods). It is filed as physicochemical.
The nature of series [5]: Cochleate formation by light microscopy. It is filed as physicochemical. Set-up: key: or above (E!); excellent (E); good (G); poor (P); none (N). As to the method:
Lipid films containing binary mixtures of lipids were made from aliquots of stock solutions in chloroform:methanol (2:1). The solvent was evaporated with a stream of nitrogen gas and the lipids deposited as a film on the walls of a glass tube. The tubes were then placed in a vacuum dessicator for 3 hours. The films were kept under Argon at −20° C. The lipid films were hydrated with buffer solutions of OAK polymers with extensive vortexing, so as to have a lipid to polymer molar ratio of […].
Hydrated films were subjected to freeze thawing three times before imaging, to ensure proper equilibration of OAK with the multilamellar vesicles. A drop of this mixture was placed on a glass slide and covered with a glass coverslip. Light microscopy was carried out at room temperature using a Zeiss Axiovert 100M microscope with a Plan-Neofluar 100×/1.3 oil immersion objective. Images were analyzed with the Zeiss LSM image browser v2.8.
The morphology of the samples of different OAKs and different lipid mixtures could be classified into the following categories.
Table 5 presents the results of cochleate formation with different lipid mixtures of 1:10 lipid to polymer ratio, and a series of OAK polymers, indicated by their alternative denotations and SED ID Nos in parentheses. “Tm” denotes the melting temperature of the lipid bilayer afforded by the given lipid mixture. Some selected samples were further analyzed to confirm the results with freeze fracture electron microscopy for, as indicated in Table 5. Cochleate formation is defined as excellent (E) or above (E!), good (G), poor (P), or none (N) based on the aforementioned comparison, as well as on the abundance of cochleate structures observed in the light microscopy images. Lipid mixtures having a number in parenthesis are samples for which freeze-fracture electron microscopy analysis was conducted. Lipid mixtures having a “+” sign next to the number in parenthesis are samples which were confirmed by freeze-fracture electron microscopy as forming large cochleates with few vesicles and no inverted micellar (HII) morphology (samples 2, 3 and 5), or smaller cochleate structures mixed with other morphologies (samples 0 and 4). Lipid mixtures which contain only anionic lipids are marked with “^A”. Sample 0 is the lipid/OAK system used and presented in Example 1 hereinabove.

The nature of series [6]: Molecular charge and RP-HPLC hydrophobicity of polymers. Type of series: physicochemical. Conditions: HPLC-RP gradient mobile phase. The source says:
Briefly, the polymers were synthesized while applying the Fmoc active ester chemistry on a fully automated, programmable peptide synthesizer (Applied Biosystems 433A). After cleavage from the resin, the crude product was extracted with 30% acetonitrile in water and purified by RP-HPLC (Alliance Waters), so as to obtain a chromatographic homogeneity higher than 95%. HPLC runs were typically performed on C18 columns (Vydac, 250 mm×4.6 or 10 mm) using a linear gradient of acetonitrile in water (1% per minute), both solvents containing 0.1% trifluoroacetic acid. The purified polymers were subjected to mass spectrometry (ZQ Waters) and NMR analyses to confirm their composition, and stored as a lyophilized powder at −20° C. Prior to being tested, fresh solutions were prepared in water, vortexed, sonicated, centrifuged and then diluted in the appropriate medium.
“Q” represents the overall molecular charge at physiological pH; “ACN (%)” represents the percent of acetonitrile in the HPLC-RP gradient mobile phase at which the polymer was eluted and which corresponds to the estimated hydrophobicity of the polymer. The column headed by “Ref.” indicates prior reference of the OAK if present, wherein a number in parentheses “(##)” corresponds to the SEQ ID NO in U.S. Pat. No. 7,504,381; the letter “R” indicates a polymer published in Radzishevsky I. S. et al. (2008), Chem. Biol., 15(4), pp. 354-362; and “New” indicates a novel polymer disclosed herein.

Series [7] is described as follows: Maximal tolerated dose (MTD), single IV injection. The note with it: mice, free OAK.
Series [8] is described as follows: Freeze fracture electron microscopy of cochleates.
For series [9], the system named is Klebsiella pneumoniae CI 1286. The experiment in a line: Whole blood assay (stability and drug release). Type of series: cell-based. The note with it: whole human blood, 37° C., 4 and 40 multiples of the MIC, FIG. 4D. Here is the method: Stability and drug release rates were assessed using the human blood-resistant Klebsiella pneumoniae CI 1286. […] After the specified incubation periods (37° C.), aliquots were plated on LB agar as described above (Antibacterial assays) for CFU count.
The stability of OAK-cochleate and OAK-liposome preparations in whole blood was compared by assessing antibacterial activity against the blood-resistant strain of Klebsiella pneumonia.

In brackets after ≈: the same amount, converted by molar mass. Some results are limits rather than exact numbers.

For orientation: mortality means the share of the test organisms that died. For `CCCCCCCCCCCC(=O)NC(CCCCN)C(=O)NCCCCCCCC(=O)NC(CCCCN)C(=O)NCCCCCCCC(=O)NC(CCCCN)C(=O)NCCCCCCCC(=O)NC(CCCCN)C(=O)NCCCCCCCC(=O)NC(CCCCN)C(=O)NCCCCCCCC(=O)NC(CCCCN)C(=O)NCCCCCCCC(=O)NC(CCCCN)C(=O)NCCCCCCCC(=O)NC(CCCCN)C(N)=O` (stereo not drawn) [C12K-7α8, C12K(NC8K)7NH2], the “MIC A. aureus” value against A. aureus amounted to 50 µM (≈ 111 µg/mL). The “MIC E. coli” value against E. coli came out at 3.1 µM (≈ 6.86 µg/mL). Further, in series [1], the “OAK MIC” value was 6.9 µg/mL. Moreover, in the series with E. coli AG100 [2], the “EtBr uptake (intracellular accumulation)” value was “enhanced in a dose-dependent manner”. Further, in the series with E. coli AG100 [3], the “time-kill, OAK alone” value is on record as “significant bactericidal activity at sub-MIC concentrations”. Moreover, the “OAK encapsulation efficiency in cochleates (OAK bound)” value in series [4] (cochleates (POPE:TOCL)) is on record as above 80%. Moreover, in series [4] (liposomes (PC:PEG2000)), the “OAK encapsulation efficiency in liposomes” value is below 20%. Moreover, the Cochleate formation result is listed as “N” in [5] (DMPC:TOCL 75:25, 1:10 lipid to polymer ratio); “E” in series [5] (DMPE:DOPG 75:25, 1:10 lipid to polymer ratio); “E” in series [5] (DMPE:TOCL 75:25, 1:10 lipid to polymer ratio); “N” in series [5] (DMPG:TOCL 75:25 (anionic lipids only), 1:10 lipid to polymer ratio); “P” in [5] (DOPE:TOCL 75:25, 1:10 lipid to polymer ratio); “E” in [5] (DPPE:TOCL 75:25, 1:10 lipid to polymer ratio). In addition, the Cochleate formation result in [5] (POPC:TOCL 75:25, 1:10 lipid to polymer ratio) was “P”; in [5] (POPE:DOPG 75:25, 1:10 lipid to polymer ratio) it was “N”; in series [5] (POPE:DOPG:TOCL 80:15:5, 1:10 lipid to polymer ratio) it was “N”; in [5] (POPE:TOCL 50:50, lipid to polymer 10:1), “poor cochleate former”; in [5] (POPE:TOCL 75:25, 1:10 lipid to polymer ratio), “G”; in series [5] (POPG:TOCL 75:25 (anionic lipids only), 1:10 lipid to polymer ratio), “G”. For the same compound, the Cochleate formation entry in series [5] (TOCL alone, lipid to polymer 10:1) is given as “abundance of smaller liposomes”. For the same compound, the “ACN (%) (percent acetonitrile at elution, estimated hydrophobicity)” value in series [6] was 47.5%. Also, in series [7] (10 mg/kg), the mortality is listed as 33%. Moreover, the “maximal tolerated dose (MTD)” value in series [7] is recorded as around 5 mg OAK/kg. For the same compound, the “cochleate formation by freeze fracture electron microscopy” value in series [8] (DMPE:TOCL (75:25), DPPE:TOCL (75:25) or DMPE:DOPG (75:25)) is given as “strongly promoted the formation of large cochleates”; in series [8] (POPC:TOCL (75:25) or POPG:TOCL (75:25)), “weakly promoted cochleate formation”. Moreover, the “Pre-formed and fully formed cochleate Length” value in series [8] (POPC:TOCL 75:25, 10:1 lipid to polymer) was “(1.8) μm”.
For C12K(NC8K)7NH2 [C12K-7α8], in [9], the “antibacterial activity / OAK release in whole blood” value is “maintained rapid bactericidal activity”.
